Marks after values point to notes of the source that are not given here.
Assays:
[1] = Aqueous stability of RSSH precursors in PBS; format: physicochemical
Experimental: We synthesized AST-2 as an esterase-sensitive RSSH donor via reaction of N-acetylpenicillamine methyl ester with methoxycarbonyl sulfenyl chloride in dichloromethane at 0 °C, affording the product in 72% yield (see Scheme S1). We first evaluated the aqueous stability of AST-2 in phosphate-buffered saline (PBS, pH 7.4) at 37 °C.
APT-1 was synthesized in 93% overall yield via a one-pot two-step sequence: N-acetylpenicillamine methyl ester was reacted with chlorocarbonylsulfenyl chloride to afford an S-perthiocarbonyl chloride intermediate, which was subsequently treated with 2-acetoxy-N-methylethan-1-aminium chloride in the presence of triethylamine (see Supporting Information).
We first evaluated the aqueous stability of the mitochondria-targeted analogs AST-2-TPP and APT-1-TPP. […] APT-1-TPP similarly retained excellent stability, with < 5% degradation over 41 h (Figure S1D).

[2] = system: porcine liver esterase (PLE); assay: Quantification of RSSH release (RSS-HPE-AM yield) by HPLC; format: biochemical; settings: pH 7.4 ammonium bicarbonate with DTPA, 37 °C; for RSSH yield (%) (formation of RSS-HPE-AM): HPE-IAM trapping; for RSSH yield (%) (formation of TPP-RSS-HPE-AM): trapping with 50 equiv of HPE-IAM
Experimental: C. Quantification of RSSH Release by HPLC Analysis […]
(PLE, 1 U/mL) in ammonium bicarbonate buffer (100 mM, pH 7.4) containing diethylenetriaminepentaacetic acid (DTPA, 100 µM) at 37 °C. At designated time points, 200 μL aliquots were withdrawn and immediately quenched by mixing with 200 μL o f i c e-cold 0.1% formic acid. Samples were analyzed by HPLC using the same method and conditions as described above. Quantification of the trapped product (RSS-HPE-AM) was carried out using a calibration curve generated in-house with authentic standards. All experiments were performed in triplicate (n = 3), and data are reported as mean ± standard deviation (SD). […]
0.1% formic acid. Samples were analyzed by Agilent HPLC with UV detection using a C18 reverse-phase column (Phenomenex Luna C18, 4.6 × 150 mm, 5 μm) at 25 °C with a flow rate of 1.0 mL/min and an injection volume of 20 μL. The gradient elution (all solvents v/v, containing 0.1% trifluoroacetic acid) was as follows: 0–10 min, linear gradient from 90% water / 10% acetonitrile to 50% water / 50% acetonitrile; 10–18 min, to 10% water / 90% acetonitrile; 18–20 min, held at 10% water / 90% acetonitrile; 20–25 min, return to 90% water / 10% acetonitrile.
Absorbance was monitored at 275 nm. […]

H9c2 cells = assay: Cytotoxicity of RSSH donors, CCK-8 assay; format: cell-based; settings: up to 200 μM, 24 h
Experimental: We evaluated the cytoprotective effects of RSSH precursors against DOX-induced cardiotoxicity in H9c2 cardiomyoblasts. First, we assessed the cytotoxicity of the RSSH donors (AST-2, APT-1, AST-2-TPP, and APT-1-TPP) using the CCK-8 assay.[24] […] To evaluate cytoprotection, H9c2 cells were pretreated with RSSH donors for 4 h, followed by 24 h co-treatment with DOX (5 μM). As expected, DOX alone reduced cell viability to ca. 50% (Figure 4a). […] Although both compounds were protective, […]. […] A distinctive feature of our study is the direct comparison between mitochondria-targeted and non-targeted RSSH donors. […] TPP conjugation only modestly enhances the cytoprotective effects of RSSH donors under our experimental conditions. This outcome may reflect the intrinsic high efficacy of non-targeted RSSH donors, thereby limiting the additional benefit of mitochondrial targeting. […]
Cytotoxicity Assessment of Hydropersulfide Precursors in H9c2 and HepG2 cells Cell viability was measured using the Cell Counting Kit-8 (CCK-8, Dojindo).[7] H9c2 cardiomyoblast and HepG2 cells were seeded at a density of 8 × 10³ cells/well in a 96-well plate (flat-bottom, tissue culture-treated). […] All treatments were prepared with a final DMSO concentration of <0.01%. In the vehicle control group, cells were treated with medium (DMEM with 10% FBS) containing 0.01% DMSO only. Cells were incubated with RSSH donors for an additional 24 h. After 24 h, cells were gently washed three times with PBS, pH 7.4. […] The plates were then incubated for 1-2 h before measuring absorbance at 450 nm using a plate reader […]
calculated as: % Viability = 100 × [Abs₄₅₀ (treated cells) / Abs₄₅₀ (vehicle control)]. Each treatment condition was performed in 6 technical replicates per biological replicate, and the experiment was independently repeated three times (n = 3 biological replicates). Data are presented as mean ±
(1 picture or pasted object on this page, not shown here)
Figure S23. Impact of (A) AST-2 or AST-2-TPP (0-200 µM) and (B) APT-1 (0-200 µM) or APT -1-TPP (0-200 µM) on H9c2 cardiomyocytes. Impact of (C) AST-2 or AST-2-TPP (0-200 µM) and (D) APT-1 (0-200 µM) or APT-1-TPP (0-200 µM) on HepG2 (liver cancer) cells. Results are expressed as mean ± SEM, n≥3; *P<0.05, **P<0.01, ***P<0.001, ****P<0.0001. Ctl = vehicle (medium with 0.01% DMSO) treated cells. […]

Row | degradation (aqueous stability) ([1]; PBS pH 7.4, 37 °C, over 41 h) | RSSH yield (%) (formation of RSS-HPE-AM) [2] | decomposition (aqueous stability) ([1]; PBS, 37 °C, over 48 h) | decomposition (aqueous stability) ([1]; PBS pH 7.4, 37 °C, over 7 h) | RSSH yield (%) (formation of TPP-RSS-HPE-AM) [2] | decomposition (aqueous stability) ([1]; PBS pH 7.4, 37 °C, over 9 h) | SMILES | cytotoxicity of donor alone (H9c2 cells) | RSSH yield (%) (formation of TPP-RSS-HPE-AM) ([2]; listed as AsT-2-TPP)
1 | < 5% | 95% |  |  |  |  | CC(=O)NC(C(=O)N(C)CCC[P+](c1ccccc1)(c1ccccc1)c1ccccc1)C(C)(C)SSC(=O)N(C)CCOC(C)=O (stereo not shown) [APT-1-TPP] | no measurable toxicity | 
2 |  | 92% | 7% |  |  |  | COC(=O)C(NC(C)=O)C(C)(C)SSC(=O)N(C)CCOC(C)=O (stereo not shown) [APT-1] | no measurable toxicity | 
3 |  |  |  | ca. 20% | 91% |  | COC(=O)SSC(C)(C)C(NC(C)=O)C(=O)N(C)CCC[P+](c1ccccc1)(c1ccccc1)c1ccccc1 (stereo not shown) [AST-2-TPP] | no measurable toxicity | 91^b) %
4 |  | 95% |  |  |  | 22% | COC(=O)SSC(C)(C)C(NC(C)=O)C(=O)OC (stereo not shown) [AST-2] | no measurable toxicity | 
